# Data reported in patent US12162890B2 (Novartis AG, priority 2015, dated 2024).
# Target: HEK293 cells with stable expression of the GRIN1 gene and tetracycline-inducible expression of the GRIN2B gene (NMDA receptor, NR2B) (Homo sapiens, UniProt Q13224)
# Test: Fluo-8 Ca2+ flux assay: reversal of Ro 25-6981-mediated suppression of the Ca2+ response to co-agonist (glutamate/glycine); also: test concentration or dose not given here
# Format: cell-based
# Details: reversal of the Ro 25-6981 suppression of the Ca2+ response to co-agonist (glutamate/glycine)
# Sequence of HEK293 cells with stable expression of the GRIN1 gene and tetracycline-inducible expression of the GRIN2B gene (NMDA receptor, NR2B) (Q13224 27-1484, other chains not shown): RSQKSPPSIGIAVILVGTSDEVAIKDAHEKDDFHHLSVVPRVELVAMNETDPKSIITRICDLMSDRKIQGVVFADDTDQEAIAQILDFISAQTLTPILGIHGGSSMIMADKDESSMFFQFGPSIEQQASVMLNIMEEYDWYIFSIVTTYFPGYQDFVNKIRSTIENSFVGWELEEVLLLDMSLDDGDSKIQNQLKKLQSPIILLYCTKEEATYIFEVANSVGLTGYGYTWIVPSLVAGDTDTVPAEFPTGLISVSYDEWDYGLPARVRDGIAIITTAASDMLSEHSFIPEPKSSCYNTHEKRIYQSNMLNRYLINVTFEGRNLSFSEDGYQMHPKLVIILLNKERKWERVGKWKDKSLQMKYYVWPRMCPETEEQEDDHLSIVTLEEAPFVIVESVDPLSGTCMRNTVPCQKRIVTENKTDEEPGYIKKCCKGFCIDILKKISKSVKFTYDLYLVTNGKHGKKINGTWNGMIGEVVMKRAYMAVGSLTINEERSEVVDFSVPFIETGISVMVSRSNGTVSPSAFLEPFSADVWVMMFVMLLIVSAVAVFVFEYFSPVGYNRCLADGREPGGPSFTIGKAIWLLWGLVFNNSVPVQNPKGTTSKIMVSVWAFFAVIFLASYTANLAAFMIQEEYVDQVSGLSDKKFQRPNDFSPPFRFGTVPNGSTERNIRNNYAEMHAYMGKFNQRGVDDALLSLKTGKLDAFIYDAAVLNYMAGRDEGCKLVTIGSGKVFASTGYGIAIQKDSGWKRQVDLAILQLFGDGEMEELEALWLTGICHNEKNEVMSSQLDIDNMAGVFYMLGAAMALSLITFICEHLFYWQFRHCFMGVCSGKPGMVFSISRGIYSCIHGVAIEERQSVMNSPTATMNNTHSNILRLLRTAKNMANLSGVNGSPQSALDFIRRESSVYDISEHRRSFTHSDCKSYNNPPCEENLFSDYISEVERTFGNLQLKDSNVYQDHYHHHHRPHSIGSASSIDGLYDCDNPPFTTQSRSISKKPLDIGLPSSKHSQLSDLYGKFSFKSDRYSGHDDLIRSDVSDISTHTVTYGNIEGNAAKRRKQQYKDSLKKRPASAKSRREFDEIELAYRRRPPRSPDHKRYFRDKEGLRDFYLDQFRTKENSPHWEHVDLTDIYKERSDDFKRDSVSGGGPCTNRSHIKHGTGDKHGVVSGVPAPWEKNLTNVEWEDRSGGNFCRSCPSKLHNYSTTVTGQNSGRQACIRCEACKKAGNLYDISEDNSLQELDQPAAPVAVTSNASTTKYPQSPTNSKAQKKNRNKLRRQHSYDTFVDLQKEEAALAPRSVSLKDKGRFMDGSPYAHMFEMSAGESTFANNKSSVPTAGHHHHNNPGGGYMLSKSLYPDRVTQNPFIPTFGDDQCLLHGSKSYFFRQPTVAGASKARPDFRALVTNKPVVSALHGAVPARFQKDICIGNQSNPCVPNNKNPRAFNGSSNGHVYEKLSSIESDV
row,SMILES,Response Recovered (%)
1,"CC1(F)CN(C(=O)Cn2ccc3c(c(-c4cnc(Cl)c(Cl)c4)cn3C3CC3)c2=O)C1 [Example 289, 1-cyclopropyl-3-(5,6-dichloropyridin-3-yl)-5-(2-(3-fluoro-3-methylazetidin-1-yl)-2-oxoethyl)-1H-pyrrolo[3,2-c]pyridin-4(5H)-one]",120
2,"O=C(Cn1ccc2cccc(-c3ccc(Cl)c(C(F)(F)F)c3)c2c1=O)N1CC(F)(F)C1 [Example 301, 8-(4-chloro-3-(trifluoromethyl)phenyl)-2-(2-(3,3-difluoroazetidin-1-yl)-2-oxoethyl)isoquinolin-1(2H)-one]",28
3,"O=C(Cn1ccc2c(c(-c3ccc(F)c(C(F)(F)F)c3)cn2C2COC2)c1=O)N1CCC(F)C1 (stereo not drawn) [Example 265, 3-(4-fluoro-3-(trifluoromethyl)phenyl)-5-(2-(3-fluoropyrrolidin-1-yl)-2-oxoethyl)-1-(oxetan-3-yl)-1H-pyrrolo[3,2-c]pyridin-4(5H)-one]",61
4,Cn1cc(-n2cc(-c3ccc(F)c(C(F)(F)F)c3)c3c(=O)n(CC(=O)N4CCC(F)C4)ccc32)cn1 (stereo not drawn) [Example 234],80

# More lines, now with the values ahead:
row,Response Recovered (%),SMILES
1,65,"CC1(F)CN(C(=O)Cn2ccn3c(C4CC4)nc(-c4cnc(Cl)c(Cl)c4)c3c2=O)C1 [Example 437, 3-cyclopropyl-1-(5,6-dichloropyridin-3-yl)-7-(2-(3-fluoro-3-methylazetidin-1-yl)-2-oxoethyl)imidazo[1,5-a]pyrazin-8(7H)-one]"
2,65,"Cc1cc(-c2nc(C3CC3)n3ccn(CC(=O)N4CC(C)(F)C4)c(=O)c23)ccc1F [Example 442, 3-cyclopropyl-7-(2-(3-fluoro-3-methylazetidin-1-yl)-2-oxoethyl)-1-(4-fluoro-3-methylphenyl)imidazo[1,5-a]pyrazin-8(7H)-one]"
